One experiment deals with T1, human 5-HT2AR (Homo sapiens, UniProt P28223).
T1 construct: expressed in transfected cells; host or cells: HEK293
Kind of experiment: HTRF-based IP1 accumulation assay (5-HT2AR antagonistic effect). The experiment is classed as cell-based. The following applies: HEK293 cells overexpressing human 5-HT2AR; serotonin at EC80. In short, it runs like this: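 HEK293 cells stably overexpressing human 5-HT2AR were pre-incubated with compound (top 10 μM, serial dilutions, LiCl buffer) 10 min at room temperature, then stimulated with EC80 serotonin 30 min at 37 °C. IP1 accumulation was read by HTRF; IC50s came from activity normalized to serotonin and IP1 controls.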

Another experiment deals with T2, mGluR5 (Homo sapiens, UniProt P41594).
T2 construct: expressed in transfected cells; host or cells: HEK293
Kind of experiment: Fluorescence-based Ca2+ mobilization assay. The conditions noted are these: HEK293 cells overexpressing mGluR5; L-glutamate at EC80. The experiment is classed as cell-based. In short, it runs like this: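 HEK293 cells stably overexpressing mGluR5, dye-loaded 60 min at 37 °C, then preincubated with compound 30 min at room temperature in the dark. Ca2+ response to L-glutamate at EC80 read on FLIPR for 2 min. Signal normalised to glutamate (100%) and vehicle (0%); IC50 from % inhibition.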

In experiment [1] the test system is physical (tactile) allodynia in spinal nerve ligation model. Kind of experiment: Analgesic efficacy experiment using animal model (Chung model, spinal nerve ligation). It is filed as in vivo, Sprague-Dawley rats. The conditions noted are these: for inhibition in vivo at 50 mg/kg: rat, oral, 50 mpk; for inhibition in vivo at 25 mg/kg: Rattus norvegicus, po. On the procedure:
The Chung model (spinal nerve ligation model) is a representative animal model to study neuropathic pain and is widely accepted as a gold standard for an animal pain model by global pharmaceutical companies around the world.
In this experiment, male Sprague-Dawley rats (100-120 g) purchased from Koatech (Pyeongtaek-si, Gyeonggi-do) were used. Rats were kept in a room maintained at constant temperature and humidity with a 12 hour light-dark cycle. Rats were allowed to eat and drink freely during the experiment.
For the Chung surgery, rats were anesthetized by isoflurane inhalation and the left lumbar nerves L5 and L6 were tightly tied with a suture thread (6-0 silk thread) at the end of the dorsal ganglion and at a front of an entrance to the sciatic nerve according to the article (Kim and Chung (1992), Pain 50(3):355-63). After suturing the incision, the rats were recovered for 2 weeks in the controlled maintenance room to induce physical allodynia in the left hind paw of the rat. To measure physical (tactile) allodynia, the rats were placed in a cage with a wire mesh on the bottom. Stimuli of increasing intensity (using the von Frey filaments in a range of 0.41 to 15.8 g) were placed on the plantar surface on the side of the nerve injury. The stimulus intensity at which the pain response (abrupt lifting, licking or sucking of the foot) was induced was recorded while applying gradual increment of stimuli. As described in the study of Chaplan et al. (1994) (Chaplan et al. (1994) J. Neurosci. Methods 53(1):55-63), the paw withdrawal threshold (PWT) was determined by increasing or decreasing continuous stimulus intensity, and the result was analyzed by applying Dixon's up-down method. Only rats showing no behavior dysfunction (e.g., feet dragging or dropping) were selected and included in the study, and the PWT of the rats used was 3.16 g or less.
After measuring the degree of basic reaction before drug injection, each compound and solvent were injected by oral administration (12.5-100 mg/kg), and the measurement was repeated at regular time intervals (60 and 120 minutes) after the drug was injected.
The experimenter conducted the PWT measurement in a blind condition not knowing which rat was administered with which drug. The control group was administered with gabapentin (65 mg/kg, intraperitoneal administration), and was randomly mixed during the measurement. Statistical analysis was performed on the measured pain response threshold by calculating the reversal rate (% reversal) from pain in Equation 1 below. […] Pain reversal rate (% reversal)=[(PWT after drug administration)−(PWT before drug administration)]*100/[(15 g, Estimated PWT in normal animals)−(PWT before drug administration)] [Equation 1]
The PWT used in this time is a value obtained by multiplying the gram, the unit of “force” measure, by 10,000, and taking the logarithm, which is a method generally used in academia.
Each experiment consisted of the compound group, the solvent group of the compound and the gabapentin (GBP) group as positive control group. As solvent of the compound, 0.5% HPMC (hydroxypropylmethyl cellulose) was used.

The subject of experiment [2] is spinal nerve ligation model (neuropathic pain model). Kind of experiment: Confirmation of synergistic analgesic effect via dual action (spinal nerve ligation model). The experiment is classed as in vivo. The following applies: sub-effective doses, FIG. 1. The procedure: The confirmation of the synergistic analgesic effect via the dual action of mGluR5 and 5-HT2AR was carried out by the use of representative mGluR5 antagonist MPEP (2-methyl-6-(phenylethynyl)pyridine) and 5-HT2AR antagonist MDL11,939 in a “spinal nerve ligation model” which is a neuropathic pain model.
In order to measure the analgesic effect of MPEP and MDL11,939, when administered alone or simultaneously together, the reversibility rate of pain relieving parameter (% reversal) was calculated according to the method of Experimental Example 4 and the results are represented in FIG. 1.

Where [3] appears, read: 1 h, read-out: % reversal (1 h).
Setting [4] is: 2 h, read-out: % reversal (2 h).

Structures are written as SMILES. Like-named read-outs stand apart in the source and are kept apart here.

What is called IC50 is the point on the concentration scale where inhibition reaches its midpoint. The low end stands for greater potency, the high end for weaker potency.

T2 sequence (P41594 21-1212): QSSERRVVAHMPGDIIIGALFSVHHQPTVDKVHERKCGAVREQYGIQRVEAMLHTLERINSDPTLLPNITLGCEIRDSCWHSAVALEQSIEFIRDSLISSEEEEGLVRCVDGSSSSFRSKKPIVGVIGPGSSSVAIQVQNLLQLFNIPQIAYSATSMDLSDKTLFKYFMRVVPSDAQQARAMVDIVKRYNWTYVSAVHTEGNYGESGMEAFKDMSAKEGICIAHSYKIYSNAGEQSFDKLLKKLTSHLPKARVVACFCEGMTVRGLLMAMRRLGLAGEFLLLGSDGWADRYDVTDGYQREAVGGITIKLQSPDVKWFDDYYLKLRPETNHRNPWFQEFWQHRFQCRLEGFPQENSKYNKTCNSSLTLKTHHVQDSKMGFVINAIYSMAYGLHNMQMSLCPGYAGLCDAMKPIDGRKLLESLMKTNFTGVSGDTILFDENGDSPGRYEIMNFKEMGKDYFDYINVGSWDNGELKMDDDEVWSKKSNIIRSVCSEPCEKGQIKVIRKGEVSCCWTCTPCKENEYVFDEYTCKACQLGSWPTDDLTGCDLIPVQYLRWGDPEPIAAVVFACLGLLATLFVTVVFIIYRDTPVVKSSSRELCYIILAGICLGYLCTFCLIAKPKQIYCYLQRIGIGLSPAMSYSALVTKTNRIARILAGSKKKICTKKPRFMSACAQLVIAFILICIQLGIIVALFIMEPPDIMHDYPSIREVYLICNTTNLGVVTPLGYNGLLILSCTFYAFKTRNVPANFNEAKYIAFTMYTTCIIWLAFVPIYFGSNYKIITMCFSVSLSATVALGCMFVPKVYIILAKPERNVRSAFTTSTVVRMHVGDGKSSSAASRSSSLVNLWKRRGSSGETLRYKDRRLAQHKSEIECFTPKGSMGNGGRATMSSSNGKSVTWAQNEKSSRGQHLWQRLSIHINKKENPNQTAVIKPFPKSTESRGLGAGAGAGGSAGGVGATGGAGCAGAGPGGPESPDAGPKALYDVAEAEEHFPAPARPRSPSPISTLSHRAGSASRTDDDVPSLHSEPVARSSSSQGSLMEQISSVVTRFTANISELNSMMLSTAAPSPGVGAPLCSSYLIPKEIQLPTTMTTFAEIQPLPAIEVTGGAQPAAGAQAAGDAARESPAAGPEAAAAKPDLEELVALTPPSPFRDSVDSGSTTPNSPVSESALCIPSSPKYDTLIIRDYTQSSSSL
T1 sequence (P28223 whole entry): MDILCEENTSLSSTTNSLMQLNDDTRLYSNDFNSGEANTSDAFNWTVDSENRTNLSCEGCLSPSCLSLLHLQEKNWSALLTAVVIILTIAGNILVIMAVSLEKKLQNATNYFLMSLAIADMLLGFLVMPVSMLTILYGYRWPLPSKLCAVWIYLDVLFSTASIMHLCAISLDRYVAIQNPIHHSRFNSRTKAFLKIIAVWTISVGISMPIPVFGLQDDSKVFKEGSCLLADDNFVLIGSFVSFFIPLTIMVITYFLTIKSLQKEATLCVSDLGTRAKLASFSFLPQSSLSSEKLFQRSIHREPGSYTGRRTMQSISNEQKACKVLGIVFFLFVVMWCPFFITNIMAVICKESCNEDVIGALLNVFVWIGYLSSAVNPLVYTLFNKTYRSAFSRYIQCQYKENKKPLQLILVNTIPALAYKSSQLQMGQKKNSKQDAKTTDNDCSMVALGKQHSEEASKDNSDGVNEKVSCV

Consider `O=C(NCC1CC(F)(F)C1)c1ccc(C#Cc2ccncc2)cc1` [Example 89, N-((3,3-difluorocyclobutyl)methyl)-4-(pyridin-4-ylethynyl)benzamide], for which the results for the half-maximal inhibitory concentration (IC50) on human 5-HT2AR and at mGluR5 were 100 to 500 nM and less than 100 nM, respectively. Besides, the inhibition in vivo at 50 mg/kg in experiment [1] (setting [3]) was determined as 111%; in experiment [1] (setting [4]) it was 103%.

Turning to `O=C(NC[C@H]1CCCOC1)c1ccc(C#Cc2ccccc2F)cc1` [Example 92, (R)-4-((2-fluorophenyl)ethynyl)-N-((tetrahydro-2H-pyran-3-yl)methyl)benzamide], the concentration for half-maximal inhibition (IC50) at human 5-HT2AR was 100 to 500 nM; against mGluR5, less than 100 nM. Further, the inhibition in vivo at 25 mg/kg in experiment [1] (setting [3]) turned out to be 39.8%; in experiment [1] (setting [4]), 48.7%.

`O=C(NCC1CCOC1)c1ccc(C#Cc2ccc(F)cc2)cc1` (centres unmarked) [Example 94, 4-((4-fluorophenyl)ethynyl)-N-((tetrahydrofuran-3-yl)methyl)benzamide]: the IC50 on human 5-HT2AR and against mGluR5 was 100 to 500 nM in each case. In addition, the inhibition in vivo at 50 mg/kg in experiment [1] (setting [3]) amounted to 74.2%; in experiment [1] (setting [4]) it was 97.7%.

Turning to `OC(c1ccccc1)C1CCN(CCc2ccccc2)CC1` (centres unmarked) [MDL11,939], the “analgesic effect (% reversal), administered alone” value in experiment [2] was “did not show a significant analgesic effect”.

`Cc1cccc(C#Cc2ccccc2)n1` [MPEP, 2-methyl-6-(phenylethynyl)pyridine]: the “analgesic effect (% reversal), administered alone” value in experiment [2] is on record as “did not show a significant analgesic effect”.

The record behind these values is US12435051B2, “Dual modulator of mGluR5 and 5-HT2A receptor, and use thereof” (Vivozon Inc., priority 2020, dated 2025).
